Read-outs that look alike come from different tables or passages of the source.
How the values were obtained:
[1] = Liver Microsome Stability Assay (mouse); conditions: mouse liver microsomes, with NADPH, 1.0 uM compound
Description: (§1) Stability of a compound was assessed in the presence of liver microsomes from various sources—mouse, rat, monkey and human liver microsomes. 1.0 uM compound, 0.4% DMSO in 0.1 M Potassium Phosphate with 1.0 mg/mL liver microsomes, were incubated at 37° C. with or without 1 mM NADPH. The samples were quenched at 0, and 30 minutes.

[2] = test system: multiple myeloma cell line NCI-H929; assay: H929 Cell Viability Assay; type: cell-based, human; conditions: Homo sapiens, NCI-H929, 48 h, NCI-H929 cells, Celltiter-Glo
Outline: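 Luminescent CellTiter-Glo read-out of viability after a 48 h exposure (37° C, 5% CO2) of NCI-H929 myeloma cells to compound dilutions in RPMI 1640 plus 10% FBS. Data for structures drawn without stereochemistry refer to stereoisomer mixtures.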

[3] = test system: HER3-ss+4aa/Gaussia Luciferase; assay: Dox-Induced Her3-ss-Gluc Assay; type: cell-based; conditions: 24 hr Dox induction, 293FRT/TO cells, read-out: 24 hr Dox Inducible Her3(ss + 4)Gluc 293FRT/TO: Mean IC50
Outline: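 Compounds were diluted in DMSO/media containing doxycycline. They were added to Flp-In 293 T-REx cells plated the previous day, then incubated at 37 °C under 5% CO2. These cells stably express, under T-REx control, Gaussia luciferase fused to the HER3 signal sequence plus 4 amino acids.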

[4] = test system: TNFα-FL/Gaussia Luciferase; assay: Dox Induced TNFα-FL-Gluc Assay; type: cell-based; conditions: for IC50: 24 hr Dox induction, 293FRT/TO cells, read-out: 24 hr Dox Inducible TNFaFLGluc 293FRT/TO: Mean IC50; for 24 hr Dox Inducible TNFaFLGluc 293FRT/TO: TNF/PD1: ratio of TNFaFLGluc IC50 to PD1ssGluc IC50
Outline: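 Compound was added with doxycycline to cells plated a day earlier, incubating at 37° C under 5% CO2. The reporter line is 293 T-REx expressing a TNFα (1-233)–Gaussia luciferase fusion under tetracycline-regulated control.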

[5] = Liver Microsome Stability Assay (human); conditions: human liver microsomes, with NADPH, 1.0 uM compound
Description: as §1

[6] = test system: multiple myeloma cell line U266B1; assay: U266 Cell Viability Assay; type: cell-based, human; conditions: Homo sapiens, U-266, 48 h, U266B1 cells, Celltiter-Glo
Outline: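 CellTiter-Glo luminescence was read after a 48 h compound exposure (37 °C, 5% CO2) of human U266B1 myeloma cells grown in 10% FBS-supplemented RPMI 1640. Data for structures shown without defined stereochemistry refer to stereoisomer mixtures.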

[7] = Liver Microsome Stability Assay (monkey); conditions: monkey liver microsomes, with NADPH, 1.0 uM compound
Description: as §1

[8] = test system: PD1-ss+10aa/Gaussia Luciferase; assay: Dox-Induced PD1-ss-Gluc Assay; type: cell-based; conditions: 24 hr Dox induction, 293FRT/TO cells, read-out: 24 hr Dox Inducible PD1ssGluc 293FRT/TO: Mean IC50
Outline: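 Flp-In 293 T-REx, stable line; Tet-regulated PD1-ss+10aa fused to Gaussia luciferase; plated day prior; cpd + doxycycline in DMSO/media; 37 °C, 5% CO2.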

[9] = test system: IL-2-FL/Gaussia Luciferase; assay: Dox Induced IL2-FL-Gluc Assay; type: cell-based; conditions: for IC50: 24 hr Dox induction, 293FRT/TO cells, read-out: 24 hr Dox Inducible IL2FLGluc 293FRT/TO: Mean IC50; for 24 hr Dox Inducible IL2FLGluc 293FRT/TO: IL2/PD1: ratio of IL2FLGluc IC50 to PD1ssGluc IC50
Outline: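 Compounds in DMSO/medium with doxycycline were applied to a 293 T-REx stable line expressing an IL-2 (aa 1-153)–Gaussia luciferase fusion under tetracycline-regulated control, cells seeded one day earlier; incubation at 37 °C, 5% CO2. Structures drawn without stereochemistry were tested as stereoisomer mixtures.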

[10] = Liver Microsome Stability Assay (rat); conditions: rat liver microsomes, with NADPH, 1.0 uM compound
Description: as §1

[11] = '<=>' given where both are I.A.

| Compound | Liver Microsome Stability (Multiple Species): Mouse - % Remaining after 30 min w/NADPH [1] [%] | EC50 [2] [nM] | IC50 [3] [nM] | IC50 [4] [nM] | Liver Microsome Stability (Multiple Species): Human - % Remaining after 30 min w/NADPH [5] [%] | EC50 [6] [nM] | Liver Microsome Stability (Multiple Species): Monkey - % Remaining after 30 min w/NADPH [7] [%] | IC50 [8] [nM] | IC50 [9] [nM] | Liver Microsome Stability (Multiple Species): Rat - % Remaining after 30 min w/NADPH [10] [%] | IC50 ([3]; mean) [nM] | IC50 ([4]; mean) [nM] | IC50 ([8]; mean) [nM] | IC50 ([9]; mean) [nM] | 24 hr Dox Inducible TNFaFLGluc 293FRT/TO: TNF/PD1 [4] | 24 hr Dox Inducible IL2FLGluc 293FRT/TO: IL2/PD1 [9] | 24 hr Dox Inducible TNFaFLGluc 293FRT/TO: TNF/PD1 [4, 11] | 24 hr Dox Inducible IL2FLGluc 293FRT/TO: IL2/PD1 [9, 11] |
| --- | --- | --- | --- | --- | --- | --- | --- | --- | --- | --- | --- | --- | --- | --- | --- | --- | --- | --- |
| CS(=O)(=O)N1CCC(Oc2ccc(N3CCC[C@@H]3c3csc(NC(=O)c4cccn4Cc4ccnc(F)c4)n3)cc2)CC1 [Compound A128, (R)-1-((2-fluoropyridin-4-yl)methyl)-N-(4-(1-(4-((1-(methylsulfonyl)piperidin-4-yl)oxy)phenyl)pyrrolidin-2-yl)thiazol-2-yl)-1H-pyrrole-2-carboxamide] | 25.5 | 847 | 68.1 | 495 | 28 | > 25000 | 4.62 | 37.9 | 59.6 | 31.3 | – | – | – | – | 13.1 | 1.6 | – | – |
| O=C(Nc1nc([C@H]2CCCN2c2ccc(C3CCNCC3)cc2)cs1)c1cccn1Cc1ccncc1 [Compound A51, (R)-N-(4-(1-(4-(piperidin-4-yl)phenyl)pyrrolidin-2-yl)thiazol-2-yl)-1-(pyridin-4-ylmethyl)-1H-pyrrole-2-carboxamide] | 64.3 | 4950 | 917 | 19300 | 2.67 | 6060 | 1.91 | 529 | 1040 | 0.4 | – | – | – | – | 36.5 | 2 | – | – |
| O=C(Nc1ccc(N2CCC[C@@H]2c2csc(NC(=O)c3cccn3Cc3ccnc(F)c3)n2)cc1)OC1COC1 [Compound A177, oxetan-3-yl (R)-(4-(2-(2-(1-((2-fluoropyridin-4-yl)methyl)-1H-pyrrole-2-carboxamido)thiazol-4-yl)pyrrolidin-1-yl)phenyl)carbamate] | 29.1 | 16.2 | 2.39 | 25.8 | 39.3 | > 25000 | 9.52 | 0.93 | 2.79 | 57.1 | – | – | – | – | 27.6 | 3 | – | – |
| CN(C)C(=O)N1CC(Oc2ccc(N3CCC[C@@H]3c3csc(NC(=O)c4cccn4Cc4ccnc(F)c4)n3)cc2)C1 [Compound A131, (R)-N-(4-(1-(4-((1-(dimethylcarbamoyl)azetidin-3-yl)oxy)phenyl)pyrrolidin-2-yl)thiazol-2-yl)-1-((2-fluoropyridin-4-yl)methyl)-1H-pyrrole-2-carboxamide] | 20.4 | 1110 | 48.1 | 508 | 11.8 | > 25000 | 6.3 | 30.9 | 64.7 | 42.9 | – | – | – | – | 16.4 | 2.1 | – | – |
| CNC(=O)c1ccc(N2CCC[C@@H]2c2csc(NC(=O)c3cccn3Cc3ccncc3)n2)cc1 [Compound A17, (R)-N-(4-(1-(4-(methylcarbamoyl)phenyl)pyrrolidin-2-yl)thiazol-2-yl)-1-(pyridin-4-ylmethyl)-1H-pyrrole-2-carboxamide] | 2.94 | 161 | 11.5 | 178 | 0.32 | > 25000 | 0.22 | 6.69 | 16.7 | 0.38 | – | – | – | – | 26.6 | 2.5 | – | – |
| O=C(Nc1nc([C@H]2CCCN2c2ccc(CO)cc2)cs1)c1cccn1Cc1ccncc1 [Compound A57, (R)-N-(4-(1-(4-(hydroxymethyl)phenyl)pyrrolidin-2-yl)thiazol-2-yl)-1-(pyridin-4-ylmethyl)-1H-pyrrole-2-carboxamide] | 6.1 | 500 | 38.3 | 287 | 26.6 | > 25000 | 49.5 | 17.7 | 45.1 | 6.28 | – | – | – | – | 16.2 | 2.5 | – | – |

Further lines, with some results ahead:

| Liver Microsome Stability (Multiple Species): Mouse - % Remaining after 30 min w/NADPH [1] [%] | EC50 [2] [nM] | IC50 [3] [nM] | IC50 [4] [nM] | Liver Microsome Stability (Multiple Species): Human - % Remaining after 30 min w/NADPH [5] [%] | EC50 [6] [nM] | Liver Microsome Stability (Multiple Species): Monkey - % Remaining after 30 min w/NADPH [7] [%] | IC50 [8] [nM] | IC50 [9] [nM] | Liver Microsome Stability (Multiple Species): Rat - % Remaining after 30 min w/NADPH [10] [%] | IC50 ([3]; mean) [nM] | IC50 ([4]; mean) [nM] | IC50 ([8]; mean) [nM] | IC50 ([9]; mean) [nM] | Compound | 24 hr Dox Inducible TNFaFLGluc 293FRT/TO: TNF/PD1 [4] | 24 hr Dox Inducible IL2FLGluc 293FRT/TO: IL2/PD1 [9] | 24 hr Dox Inducible TNFaFLGluc 293FRT/TO: TNF/PD1 [4, 11] | 24 hr Dox Inducible IL2FLGluc 293FRT/TO: IL2/PD1 [9, 11] |
| --- | --- | --- | --- | --- | --- | --- | --- | --- | --- | --- | --- | --- | --- | --- | --- | --- | --- | --- |
| 9.41 | > 25000 | > 25000 | > 25000 | 0.96 | > 25000 | 0.5 | > 25000 | > 25000 | 12.3 | – | – | – | – | O=C(Nc1nc(/C=C/c2cccc(=O)[nH]2)cs1)c1cccn1Cc1ccnc(F)c1 [Compound B61] | <=>1.00 | <=>1.0 | – | – |
| 0.1 | > 25000 | – | – | 0.2 | > 25000 | 0.11 | – | – | 0.11 | 20700 | > 25000 | 4240 | 6620 | Cc1ccc(S(=O)(=O)N2CCC[C@@H]2c2csc(NC(=O)c3cccn3Cc3ccncc3)n2)cc1 [Compound E14, (R)-1-(pyridin-4-ylmethyl)-N-(4-(1-tosylpyrrolidin-2-yl)thiazol-2-yl)-1H-pyrrole-2-carboxamide] | – | – | >5.90 | 1.6 |
| 88.3 | 4210 | – | – | 67.8 | > 25000 | 28.2 | – | – | 41.8 | 127 | 1240 | 93.4 | 345 | O=C(Nc1nc([C@H]2CCCN2c2ccc(C(F)(F)F)cc2)cs1)c1cccn1CC1CCOCC1 [Compound C91, (R)-1-((tetrahydro-2H-pyran-4-yl)methyl)-N-(4-(1-(4-(trifluoromethyl)phenyl)pyrrolidin-2-yl)thiazol-2-yl)-1H-pyrrole-2-carboxamide] | – | – | 13.3 | 3.7 |
